# US20200017496A1 (priority 2017, published 2020)
# Like-named read-outs stand apart in the source and are kept apart here.
# Key:
# Assay type in all cases: cell-based
# [1] = system: Klebsiella pneumoniae (KPN) isolates; test: MIC of compounds alone and combined with antibacterials, broth microdilution (CLSI); details: AF1 @ 4 μg/mL
# Description: (§1) Method 2: MIC of Compounds Alone and Combined with Antibacterials Against Bacterial Isolates.
# (§2) Compounds of the present invention were assessed against genotyped bacterial strains (Table 3, 4) alone or in combination with an antibacterial (Table 2). […] Log phase bacterial suspensions were adjusted to a final density of 5·10^5 CFU/mL in cation-adjusted Mueller-Hinton broth (ca-MHB; Becton-Dickinson and Company) and added to each well (98 μL). Microplates were incubated for 16-20 h at 35° C. in ambient air. The MIC of the compounds was defined as the lowest concentration of said compounds that prevented bacterial growth as read by visual inspection. The MIC of ATB at each compound concentration was defined as the lowest concentration of ATB that prevented bacterial growth as read by visual inspection.
# [2] = system: Enterobacter aerogenes (EAE) isolates; test: as above; details: for MIC ATB in combination: AF1 @ 4 μg/mL; for MIC: Klebsiella aerogenes, ATB alone, read-out: MIC
# Description: as §1, §2
# [3] = system: Citrobacter freundii (CFR) isolates; test: as above
# Description: as §1, §2
# [4] = system: Proteus mirabilis (PMI) isolates; test: microbe, parasite or virus in culture; details: AF1 @ 4 μg/mL
# Description: as §1, §2
smiles,measurement,setting,value
"C=CC1=C(C(=O)O)N2C(=O)[C@@H](NC(=O)/C(=N\O)c3csc(N)n3)[C@H]2SC1 [CDR, Cefdinir]",MIC ATB in combination,[1]; KPN 6299,<=0.25 μg/mL
same,MIC ATB in combination,[1]; KPN 110376,0.5 µg/mL
same,MIC ATB in combination,[1]; KPN 131119,1 µg/mL
same,MIC ATB in combination,[1]; KPN 140513,16 µg/mL
same,MIC ATB in combination,[1]; KPN 160143,<=0.25 μg/mL
same,MIC ATB in combination,[1]; KPN 190128,1 µg/mL
same,MIC ATB in combination,[1]; KPN 190270,1 µg/mL
same,MIC ATB in combination,[1]; KPN 190425,<=0.25 μg/mL
same,MIC ATB in combination,[1]; KPN 190551,<=0.25 μg/mL
same,MIC ATB in combination,[1]; KPN 200047,<=0.25 μg/mL
same,MIC ATB in combination,[1]; KPN 200327,<=0.25 μg/mL
same,MIC ATB in combination,[1]; KPN 260251,0.5 µg/mL
same,MIC ATB in combination,[1]; KPN 260252,16 µg/mL
same,MIC ATB in combination,[1]; KPN 260376,<=0.25 μg/mL
same,MIC ATB in combination,[1]; KPN 270077,1 µg/mL
same,MIC ATB in combination,[1]; KPN 700603,0.5 µg/mL
same,MIC ATB in combination,[1]; KPN ARA,0.5 µg/mL
same,MIC ATB in combination,[1]; KPN BAA-1898,0.5 µg/mL
same,MIC ATB in combination,[1]; KPN LIB,1 µg/mL
same,MIC ATB in combination,[1]; KPN UFR22_O,1 µg/mL
same,MIC ATB in combination,[1]; KPN UFR23,0.5 µg/mL
same,MIC ATB in combination,[1]; KPN UFR24,4 µg/mL
same,MIC ATB in combination,[1]; KPN UFR25,<=0.25 μg/mL
same,MIC ATB in combination,[1]; KPN UFR27,8 µg/mL
same,MIC ATB in combination,[1]; KPN UFR28,1 µg/mL
same,MIC ATB in combination,[1]; KPN UFR65,2 µg/mL
same,MIC ATB in combination,[1]; KPN UFR66,2 µg/mL
same,MIC ATB in combination,[1]; KPN UFR67,16 µg/mL
same,MIC ATB in combination,[1]; KPN UFR68,2 µg/mL
same,MIC ATB in combination,[1]; KPN UFR76,>128 µg/mL
same,MIC ATB in combination,[1]; KPN UFR77,8 µg/mL
same,MIC ATB in combination,[1]; KPN UFR78,128 µg/mL
same,MIC ATB in combination,[1]; KPN UFR79,16 µg/mL
same,MIC ATB in combination,[1]; KPN UFR80,1 µg/mL
same,MIC ATB in combination,[1]; KPN UFR81,16 µg/mL
same,MIC ATB in combination,[1]; KPN UFR215,0.5 µg/mL
same,MIC ATB in combination,[1]; KPN UFR216,<=0.25 μg/mL
same,MIC ATB in combination,[1]; KPN UFR217,<=0.25 μg/mL
same,MIC ATB in combination,[1]; KPN UFR219,<=0.25 μg/mL
same,MIC ATB in combination,[1]; KPN UFR220,2 µg/mL
same,MIC ATB in combination,[1]; KPN UFR221,2 µg/mL
same,MIC ATB in combination,[1]; KPN UFR222,16 µg/mL
same,MIC ATB in combination,[1]; KPN UFR227O,32 µg/mL
same,MIC ATB in combination,[2]; EAE 49469,16 µg/mL
same,MIC ATB in combination,[2]; EAE 200261,8 µg/mL
same,MIC ATB in combination,[2]; EAE UFR199,1 µg/mL
same,MIC ATB in combination,[2]; EAE UFR201,<=0.25 μg/mL
same,MIC ATB in combination,[2]; EAE UFR202,4 µg/mL
same,MIC ATB in combination,[2]; EAE UFR213,4 µg/mL
same,MIC,"[2]; strain EAE 200261 (TEM-x, AmpC)",> 256 µg/mL
same,MIC,"[2]; strain EAE UFR199 (TEM-1b, SHV-12, KPC-2, OXA-9)",> 256 µg/mL
same,MIC ATB in combination,"[3]; CFR UFR10, AF1 @ 4 μg/mL",<=0.25 μg/mL
same,MIC ATB in combination,"[3]; CFR UFR11, AF1 @ 4 μg/mL",128 µg/mL
same,MIC ATB in combination,"[3]; CFR UFR83, AF1 @ 4 μg/mL",>128 µg/mL
same,MIC ATB in combination,"[3]; CFR UFR146, AF1 @ 4 μg/mL",0.5 µg/mL
same,MIC ATB in combination,"[3]; CFR UFR248, AF1 @ 4 μg/mL",0.5 µg/mL
same,MIC ATB in combination,"[3]; CFR UFR249, AF1 @ 4 μg/mL",<=0.25 μg/mL
same,MIC ATB in combination,"[3]; CFR UFR250, AF1 @ 4 μg/mL",<=0.25 μg/mL
same,MIC ATB in combination,"[3]; strain CFR UFR253, antibacterial combined with AF1 @ 4 μg/mL",<=0.25 μg/mL
same,MIC ATB in combination,"[3]; strain CFR UFR254, antibacterial combined with AF1 @ 4 μg/mL",<=0.25 μg/mL
same,MIC ATB in combination,[4]; PMI UFR82,0.5 µg/mL
same,MIC ATB in combination,[4]; PMI UFR120,<=0.25 μg/mL
same,MIC ATB in combination,[4]; PMI UFR121,<=0.25 μg/mL
same,MIC ATB in combination,[4]; PMI UFR122,<=0.25 μg/mL
same,MIC ATB in combination,[4]; PMI UFR123,<=0.25 μg/mL
same,MIC ATB in combination,[4]; PMI UFR124,<=0.25 μg/mL
same,MIC ATB in combination,[4]; PMI UFR125,<=0.25 μg/mL
same,MIC ATB in combination,[4]; PMI UFR126,<=0.25 μg/mL
same,MIC ATB in combination,[4]; PMI UFR127,<=0.25 μg/mL
same,MIC ATB in combination,[4]; PMI UFR129,<=0.25 μg/mL
same,MIC ATB in combination,[4]; PMI UFR130,<=0.25 μg/mL
same,MIC ATB in combination,[4]; PMI UFR237,<=0.25 μg/mL
